Laboratory results taken from patent EP3248604A1, “AGENTS FOR MODULATION OF WNT-TCF SIGNALLING AND USES THEREOF” (UNIVERSITE DE GENEVE, priority 2016, dated 2017).

How the values were obtained:
[1] = tested on: WNT-TCF targets; experiment: RT-qPCR gene expression in Ls174T cells; format: cell-based, human; details: Ls174T
Protocol: (§1) RT-qPCR was performed as in Melotti et al. (2014, supra) using BioRad equipment and reagents. Cells cultured in nitro were treated with the desired concentration of drug in DMEM-F12 and reduced serum (2.5% FBS) for 16h, unless otherwise noted, and collected in Trizol (Sigma) before total RNA extraction and cDNA synthesis. Primers were as in Table 1. HPRT (gene encoding Hypoxanthine phosphoribosyltransferase 1) and βACTIN were used as housekeeping controls for normalization.
Compounds have been tested for the transcriptional modulation of a restricted TCF signature in human colon cancer Ls174T cells. These included the direct targets AXIN2 (gene encoding a protein axis inhibition protein 2), LGR5 (gene encoding encodes leucine-rich repeat-containing G-protein coupled receptor 5) and cMYC (a regulator gene encoding a transcription factor), which should be repressed by WNT-TCF response antagonists and p21 (or CDKN1A, gene encoding a cyclin-dependent kinase inhibitor that inhibits the complexes of CDK2 and CDK1), which should be induced.

[2] = tested on: BMP/TGFβ; experiment: RT-qPCR gene expression in Ls174T cells, BMP/TGFβ genes; format: cell-based, human; details: vs DMSO=1
Protocol: as §1
Nine components of the three pathways (WNT-TCF, BMP/TGFβ and chemokine/cytokine), and the top 6 repressed epigenetic regulators (ZMYND8, EED, SMARCAL1, TBLIXR1, SETD6 and TAF5L) (Figure 12) were tested for their modulation by dnTCF and their timed response to CAP2 treatment. […] DnTCF also repressed the expression of BMP4, SMAD6, IL8, CXCL3 and CXCL5, but expression of IL33 was enhanced. […] BMP4 and ID2 were also repressed at 2 and 4h but SMAD6 was repressed only at 4h. CXCL3 was already repressed at 2h, IL8 was little affected and IL33 and CXCL5 were enhanced at 2h. At 4 h only CXCL3 was repressed and the other three cytokine/chemokine genes tested (IL8, IL33 and CXCL5) were neither enhanced nor repressed. […] All values are normalized ratios with DMSO-controls, which were equated to 1 Table 14

[3] = tested on: cell proliferation; experiment: BrdU incorporation assay; format: cell-based; details: Example 3 (Ls174T, DLD1 cells)
Protocol: Cells incubated in vitro with different compounds were treated in DMEM-F12 with reduced serum (2.5% FBS) for 20 min with BrdU (5-bromo-2'-deoxyuridine; 10mg/ml, Sigma), washed and fixed with fresh paraformaldehyde (PFA; 4%, pH 8) followed by acid treatment and neutralization (Melotti et al., 2014, supra). Antibody analyses used anti-BrdU antibodies (supplied by University of Iowa Hybridoma Bank) and rhodamine-coupled anti-mouse secondary antibodies (Invitrogen Molecular Probes). Nuclei were counterstained with DAPI (4',6-diamidino-2-phenylindole; Sigma).

[4] = tested on: WNT-TCF targets; experiment: RT-qPCR in cells dissociated from DLD1 xenograft tumors, treated in vitro; format: cell-based, human; details: 16h, vs DMSO
Protocol: as §1
Four DLD1 regressed tumors were monitored after cessation of CAP2 treatment to determine recurrence after drug withdrawal. […] Tumor regrowth, however, could be due in principle to insufficient drug dosage or to the development of drug resistance. To test these possibilities the recurrent tumor was thus excised and the cells plated in vitro to test for the possible development of CAP2 resistance. One control in vivo cyclodextrin-treated tumor taken before reaching the legal (at around 21 day) limit was similarly processed to serve as control. […] The levels of WNT-TCF targets were generally lower in cells derived from tumors that were exposed in vivo to CAP2 in comparison to those in cells from tumors that were not treated with CAP2 (Figure 10). […] This consistent difference in the levels of several WNT-TCF targets raised the possibility that whereas tumor recurrence might be due to incomplete initial dosage, the recurring tumor harbored the memory of previous CAP2 treatment.

[5] = tested on: Epigenetic regulators; experiment: RT-qPCR of epigenetic regulators in CC14 cells; format: cell-based, human; details: 0.5 µM
Protocol: as §1
The WNT-TCF-independent repressive activity of CAP2 on epigenetic regulators may be extrapolated to other cancer cells as it was also detected in HT29 and CC14 human colon cancer cells, in MeWo human melanoma cells as well as in U87 and U251 human glioma cells. In all these different human cancer cells, CAP2 (at 0.5 µM) modulated the expression of ZMYND8, SMARCAL1, TBLIXR1, SETD6 and TAF5Ls (Table 15).

[6] = 1.25µM, 16h, batch 3, vs DMSO=1
[7] = 5µM batch 3, 2h post-treatment, vs DMSO=1
[8] = 5µM batch 3, 4h post-treatment, vs DMSO=1
[9] = Table 11, head 'in vitro', concentration not given
[10] = DLD1 CAP2-treated tumor dissociated re-treated in vitro, 2.5µM
[11] = DLD1 CAP2-treated tumor dissociated re-treated in vitro, 5µM
[12] = DLD1 control tumor dissociated treated in vitro, 2.5µM
[13] = DLD1 control tumor dissociated treated in vitro, 5µM

Q: Which results are given for CC1=C(C)C(=O)O[C@@H]([C@](C)(O)[C@]2(O)CC[C@@]3(O)[C@@H]4CC=C5CC=CC(=O)[C@]5(C)[C@H]4CC[C@]23C)C1 [CAP2]?
A: AXIN2 expression [1, 6]: 0.6; LGR5 expression [1, 6]: 0.2; AXIN2 expression ([1]; 2.5µM, 16h, batch 3, vs DMSO=1): 0.4; LGR5 expression ([1]; 2.5µM, 16h, batch 3, vs DMSO=1): 0.1; AXIN2 expression [1, 7]: 0.2; LGR5 expression [1, 7]: 0.7; AXIN2 expression [1, 8]: 0.1; LGR5 expression [1, 8]: 0.1; AXIN2 expression ([1]; 5µM, 16h, batch 3, vs DMSO=1): 0.2; LGR5 expression ([1]; 5µM, 16h, batch 3, vs DMSO=1): 0.03; AXIN2 expression ([1]; 10 µM, 16h): 0.6; CDKN1A expression ([1]; 10 µM, 16h): 3.7; LGR5 expression ([1]; 10 µM, 16h): 0.7; cMYC expression ([1]; 10 µM, 16h): 0.6; AXIN2 expression ([1]; 10µM, 16h, batch 3, vs DMSO=1): 0.1; LGR5 expression ([1]; 10µM, 16h, batch 3, vs DMSO=1): 0.1; AXIN2 expression level as compared to control ([1]; 2D culture, 2.5µm): 0.4; ASCL2 expression ([1]; Table 7, 1.25µM, vs DMSO=1): 1.1; AXIN2 expression ([1]; Table 7, 1.25µM, vs DMSO=1): 0.7; CDKN1A expression ([1]; Table 7, 1.25µM, vs DMSO=1): 3.5; LEF1 expression ([1]; Table 7, 1.25µM, vs DMSO=1): 1.2; LGR5 expression ([1]; Table 7, 1.25µM, vs DMSO=1): 0.3; cMYC expression ([1]; Table 7, 1.25µM, vs DMSO=1): 0.04; ASCL2 expression ([1]; Table 7, 2.5µM, vs DMSO=1): 0.4; AXIN2 expression ([1]; Table 7, 2.5µM, vs DMSO=1): 0.4; CDKN1A expression ([1]; Table 7, 2.5µM, vs DMSO=1): 5.4; LEF1 expression ([1]; Table 7, 2.5µM, vs DMSO=1): 0.7; LGR5 expression ([1]; Table 7, 2.5µM, vs DMSO=1): 0.2; cMYC expression ([1]; Table 7, 2.5µM, vs DMSO=1): 0.1; ASCL2 expression ([1]; Table 7, 5µM, vs DMSO=1): 0.1; AXIN2 expression ([1]; Table 7, 5µM, vs DMSO=1): 0.3; CDKN1A expression ([1]; Table 7, 5µM, vs DMSO=1): 11.4; LEF1 expression ([1]; Table 7, 5µM, vs DMSO=1): 0.5; LGR5 expression ([1]; Table 7, 5µM, vs DMSO=1): 0.1; cMYC expression ([1]; Table 7, 5µM, vs DMSO=1): 0.1; ASCL2 expression ([1]; Table 7, 10µM, vs DMSO=1): 0.1; AXIN2 expression ([1]; Table 7, 10µM, vs DMSO=1): 0.1; CDKN1A expression ([1]; Table 7, 10µM, vs DMSO=1): 7.6; LEF1 expression ([1]; Table 7, 10µM, vs DMSO=1): 0.3; LGR5 expression ([1]; Table 7, 10µM, vs DMSO=1): 0.1; cMYC expression ([1]; Table 7, 10µM, vs DMSO=1): 0.01; ASCL2 expression [1, 9]: 0.1; AXIN2 expression [1, 9]: 0.3; LGR5 expression [1, 9]: 0.1; BMP4 expression ([2]; 5µM batch 3, 2h post-treatment): 0.4; ID2 expression ([2]; 5µM batch 3, 2h post-treatment): 0.7; SMAD6 expression ([2]; 5µM batch 3, 2h post-treatment): 1.3; BMP4 expression ([2]; 5µM batch 3, 4h post-treatment): 0.1; ID2 expression ([2]; 5µM batch 3, 4h post-treatment): 0.1; SMAD6 expression ([2]; 5µM batch 3, 4h post-treatment): 0.4; concentration which changes cell proliferation assessed by BrdU incorporation [3]: 1.25 µM; ASCL2 expression [4, 10]: 0.05; AXIN2 expression [4, 10]: 0.4; LEF1 expression [4, 10]: 0.4; LGR5 expression [4, 10]: 0.6; cMYC expression [4, 10]: 0.2; ASCL2 expression [4, 11]: 0.1; AXIN2 expression [4, 11]: 0.3; LEF1 expression [4, 11]: 0.3; LGR5 expression [4, 11]: 0.3; cMYC expression [4, 11]: 0.1; ASCL2 expression [4, 12]: 0.1; AXIN2 expression [4, 12]: 0.6; LEF1 expression [4, 12]: 0.4; LGR5 expression [4, 12]: 0.7; cMYC expression [4, 12]: 0.3; ASCL2 expression [4, 13]: 0.1; AXIN2 expression [4, 13]: 0.6; LEF1 expression [4, 13]: 0.3; LGR5 expression [4, 13]: 0.4; cMYC expression [4, 13]: 0.3; EED expression [5]: 0.3; SETD6 expression [5]: 0.4; SMARCAL1 expression [5]: 0.2; TAF5L expression [5]: 0.5; TBL1XR1 expression [5]: 0.2; ZMYND8 expression [5]: 0.1
